Earlier results on one molecule are cited in patent US20260263387A1, “INTRANASAL EPINEPHRINE FORMULATIONS AND METHODS OF USE” (ARS Pharmaceuticals Operations, Inc., priority 2024, published 2026).

Take `CNC[C@H](O)c1ccc(O)c(O)c1` [epinephrine, (R)-4-(1-Hydroxy-2-(methylamino)ethyl)benzene-1,2-diol]: for the setting “intranasal dose level of 2.5 mg and below (0.3 mg, 0.6 mg, 1.25 mg, or 2.5 mg)”, the “blood level of epinephrine” value was “no blood level”. Under “intranasal, Srisawat”, the “significant systemic absorption of epinephrine via the IN route” value is “observed only at 5 mg”.
